In patent publication US10086085B2, “Bifunctional cytotoxic agents” (priority 2014, dated 2018):
pIC50: −log10 of the molar value. Where two headings read alike, the source gives them in different places.

Experiments:
HL60 (leukemia) = test: Cytotoxicity assay for payloads (MTS), HL-60 cells; type: cell-based; settings: incubated with compounds for four days, MTS absorbance 490 nm
Protocol: (§1) Cancer cell lines were obtained from ATCC (Manassas, Va.). N87 (human gastric carcinoma derived from metastatic liver site). HL60 (leukemia), A375 (melanoma) and HUVEC (human umbilical vein endothelial cells). were grown in RPMI 1640 media. All media were supplemented with 10% fetal bovine serum, 1% sodium pyruvate, and 1% L-glutamine (Invitrogen, Grand Island, N.Y.). Human umbilical vein endothelial cells (HUVEC) were obtained from Lonza (Allendale, N.J.) and maintained in EGM2 media supplemented with EGM-2 SingleQuots (Lonza # CC-4176). All cells were maintained in a humidified incubator (37° C., 5% CO2).
(§2) Cells in 100 μl medium were cultured in a 96-well plate. Cancer cell lines treated with the indicated compounds by adding 50 μl of 3× stocks in duplicate at 10 concentrations. Cells were incubated with compounds for four days, then 30 μl of CellTiter® 96 AQueous One MTS Solution (Promega Cat # G3582) was added to the cells, incubated 1.5 hr at 37° C., then absorbance measured at 490 nm on a Victor plate reader (Perkin Elmer, Waltham, Mass.). Relative cell viability was determined as a percentage of untreated control wells. IC50 values were calculated using four parameter logistic model #203 with XLfit v4.2 (IDBS, Guildford, Surry, UK).

[1] = system: N87 (human gastric carcinoma derived from metastatic liver site); test: Cytotoxicity assay for payloads (MTS), N87 cells; type: cell-based; settings: N87 cells, incubated with compounds for four days, MTS absorbance 490 nm, read-out: N87 IC50
Protocol: as §1, §2

## CC(=O)Oc1cc2c(c3ccccc13)[C@H](CCl)CN2C(=O)C12CCC(C(=O)N3C[C@@H](CCl)c4c3cc(OC(C)=O)c3ccccc43)(CC1)N2 [Compound 79, 7-azabicyclo[2.2.1]heptane-1,4-diylbis[carbonyl(1S)-1-(chloromethyl)-1,2-dihydro-3H-benzo[e]indole-3,5-diyl]diacetate]
HL60 (leukemia)
  pIC50: 9.30
[1]
  pIC50: 8.10

## O=C(c1ccc(C(=O)N2C[C@@H](CCl)c3c2cc(O[C@@H]2O[C@H](CO)[C@H](O)[C@H](O)[C@H]2O)c2ccccc32)s1)N1C[C@@H](CCl)c2c1cc(O)c1ccccc21 [Compound 145, ((S)-1-(chloromethyl)-5-(((2S,3R,4S,5R,6R)-3,4,5-trihydroxy-6-(hydroxymethyl)tetrahydro-2H-pyran-2-yl)oxy)-1,2-dihydro-3H-benzo[e]indol-3-yl)(5-((S)-1-(chloromethyl)-5-hydroxy-2,3-dihydro-1H-benzo[e]indole-3-carbonyl)thiophen-2-yl)methanone]
HL60 (leukemia); Homo sapiens, 96 h
  pIC50: 10.29
[1]; Homo sapiens, 96 h
  pIC50: 9.89

## CC(=O)Oc1cc2c(c3c(C)c[nH]c13)[C@H](CCl)CN2C(=O)C12CCC(C(=O)N3C[C@@H](CCl)c4c3cc(OC(C)=O)c3[nH]cc(C)c43)(CC1)CC2 [Compound 85, bicyclo[2.2.2]octane-1,4-diylbis[carbonyl(1S)-1-(chloromethyl)-8-methyl-1,6-dihydropyrrolo[3,2-e]indole-3,5(2H)-diyl]diacetate]
HL60 (leukemia); Homo sapiens, 96 h
  pIC50: 11.30
[1]; Homo sapiens, 96 h
  pIC50: 10.28

## CC(=O)Oc1cc2c(c3c(C)c[nH]c13)[C@H](CCl)CN2C(=O)C12CC(C(=O)N3C[C@@H](CCl)c4c3cc(OC(C)=O)c3[nH]cc(C)c43)(C1)C2 [Compound 91, bicyclo[1.1.1]pentane-1,3-diylbis[carbonyl(1S)-1-(chloromethyl)-8-methyl-1,6-dihydropyrrolo[3,2-e]indole-3,5(2H)-diyl]diacetate]
HL60 (leukemia); Homo sapiens, 96 h
  pIC50: 11.40
[1]; Homo sapiens, 96 h
  pIC50: 10.24

## Cc1c[nH]c2c(O)cc3c(c12)[C@H](CCl)CN3C(=O)C12CC(C(=O)N3C[C@@H](CCl)c4c3cc(O)c3ccccc43)(C1)C2 [Compound 154, [(1S)-1-(chloromethyl)-5-hydroxy-1,2-dihydro-3H-benzo[e]indol-3-yl](3-{[(1S)-1-(chloromethyl)-5-hydroxy-8-methyl-1,6-dihydropyrrolo[3,2-e]indol-3(2H)-yl]carbonyl}bicyclo[1.1.1]pent-1-yl)methanone]
HL60 (leukemia); Homo sapiens, 96 h
  pIC50: 11.52
[1]; Homo sapiens, 96 h
  pIC50: 10.59

## Cc1c[nH]c2c(O)cc3c(c12)[C@H](CCl)CN3C(=O)C12CC(C(=O)N3C[C@@H](CCl)c4c3cc(N)c3ccccc43)(C1)C2 [Compound 180, [(1S)-5-amino-1-(chloromethyl)-1,2-dihydro-3H-benzo[e]indol-3-yl](3-{[(1S)-1-(chloromethyl)-5-hydroxy-8-methyl-1,6-dihydropyrrolo[3,2-e]indol-3(2H)-yl]carbonyl}bicyclo[1.1.1]pent-1-yl)methanone]
HL60 (leukemia); Homo sapiens, 96 h
  pIC50: 10.32
[1]; Homo sapiens, 96 h
  pIC50: 9.37

## Nc1ccc(CCC(=O)N(CC(=O)N2C[C@@H](CCl)c3c2cc(O)c2ccccc32)CC(=O)N2C[C@@H](CCl)c3c2cc(O)c2ccccc32)cc1 [Compound 56, 3-(4-Amino-phenyl)-N,N-bis-[2-((S)-1-chloromethyl-5-hydroxy-1,2-dihydro-benzo[e]indol-3-yl)-2-oxo-ethyl]-propionamide]
HL60 (leukemia); Homo sapiens, 96 h
  pIC50: 8.16
[1]; Homo sapiens, 96 h
  pIC50: ≤ 7.00

## O=C(c1ccc(C(=O)N2C[C@@H](CCl)c3c2cc(O)c2ccccc32)o1)N1C[C@@H](CCl)c2c1cc(O)c1ccccc21 [Compound 13, (S)-furan-2,5-diylbis(((S)-1-(chloromethyl)-5-hydroxy-1H-benzo[e]indol-3(2H)-yl)methanone)]
HL60 (leukemia); Homo sapiens, 96 h
  pIC50: 10.85
[1]; Homo sapiens, 96 h
  pIC50: 9.86

## O=C(CNCC(=O)N1C[C@@H](CCl)c2c1cc(OP(=O)(O)O)c1ccccc21)N1C[C@@H](CCl)c2c1cc(OP(=O)(O)O)c1ccccc21 [Compound 173, iminobis[(1-oxoethane-2,1-diyl)(1S)-1-(chloromethyl)-1,2-dihydro-3H-benzo[e]indole-3,5-diyl] bis[dihydrogen (phosphate)]]
HL60 (leukemia); Homo sapiens, 96 h
  pIC50: 9.77
[1]; Homo sapiens, 96 h
  pIC50: 7.88

## O=C(N1C[C@@H](CCl)c2c1cc(O)c1ccccc21)C12CC(C(=O)N3C[C@@H](CCl)c4c3cc(OP(=O)(O)O)c3ccccc43)(C1)C2 [Compound 163, (1S)-1-(chloromethyl)-3-[(3-{[(1S)-1-(chloromethyl)-5-hydroxy-1,2-dihydro-3H-benzo[e]indol-3-yl]carbonyl}bicyclo[1.1.1]pent-1-yl)carbonyl]-2,3-dihydro-1H-benzo[e]indol-5-yl dihydrogen phosphate]
HL60 (leukemia); Homo sapiens, 96 h
  pIC50: 9.75
[1]; Homo sapiens, 96 h
  pIC50: 8.16

## CC(=O)Oc1cc2c(c3ccccc13)[C@H](CCl)CN2C(=O)c1ccc(C(=O)N2C[C@@H](CCl)c3c2cc(N)c2ccccc32)s1 [Compound 115, Acetic acid (S)-3-[5-((S)-5-amino-1-chloromethyl-1,2-dihydro-benzo[e]indole-3-carbonyl)-thiophene-2-carbonyl]-1-chloromethyl-2,3-dihydro-1H-benzo[e]indol-5-yl ester]
HL60 (leukemia); Homo sapiens, 96 h
  pIC50: 10.82
[1]; Homo sapiens, 96 h
  pIC50: 8.84

## O=C(c1ccc(C(=O)N2C[C@@H](CCl)c3c2cc(O)c2ccccc32)s1)N1C[C@@H](CCl)c2c1cc(O)c1ccccc21 [Compound 29, (S)-thiophene-2,5-diylbis(((S)-1-(chloromethyl)-5-hydroxy-1H-benzo[e]indol-3(2H)-yl)methanone)]
HL60 (leukemia); Homo sapiens, 96 h
  pIC50: > 12.00
[1]; Homo sapiens, 96 h
  pIC50: 11.05

## CC(=O)Oc1cc2c(c3ccccc13)[C@H](CCl)CN2C(=O)C12CCC(C(=O)N3C[C@@H](CCl)c4c3cc(OC(C)=O)c3ccccc43)(C1)C2 [Compound 82, (1S,4S)-bicyclo[2.1.1]hexane-1,4-diylbis[carbonyl(1S)-1-(chloromethyl)-1,2-dihydro-3H-benzo[e]indole-3,5-diyl]diacetate]
HL60 (leukemia); Homo sapiens, 96 h
  pIC50: 9.44
[1]; Homo sapiens, 96 h
  pIC50: 8.49

## Nc1cc2c(c3ccccc13)[C@H](CCl)CN2C(=O)C12CC(C(=O)N3C[C@@H](CCl)c4c3cc(N)c3ccccc43)(C1)C2 [Compound 130, bicyclo[1.1.1]pentane-1,3-diylbis{[(1S)-5-amino-1-(chloromethyl)-1,2-dihydro-3H-benzo[e]indol-3-yl]methanone}]
HL60 (leukemia); Homo sapiens, 96 h
  pIC50: 9.64
[1]; Homo sapiens, 96 h
  pIC50: 8.74

## CC(=O)Oc1cc2c(c3ccccc13)[C@H](CCl)CN2C(=O)c1sc(C(=O)N2C[C@@H](CCl)c3c2cc(OC(C)=O)c2ccccc32)c2c1OCCCO2 [Compound 142, 3,4-dihydro-2H-thieno[3,4-b][1,4]dioxepine-6,8-diylbis[carbonyl(1S)-1-(chloromethyl)-1,2-dihydro-3H-benzo[e]indole-3,5-diyl] diacetate]
HL60 (leukemia); Homo sapiens, 96 h
  pIC50: ≤ 8.00
[1]; Homo sapiens, 96 h
  pIC50: ≤ 7.00

## Cc1c[nH]c2c1[C@@]13C[C@@H]1CN(C(=O)C14CC(C(=O)N5C[C@H]6C[C@@]67C5=CC(=O)c5[nH]cc(C)c57)(C1)C4)C3=CC2=O [Compound 135, (3bR,4aS,3b′R,4a′S)-6,6′-(bicyclo[1.1.1]pentane-1,3-diyldicarbonyl)bis(3-methyl-4,4a,5,6-tetrahydrocyclopropa[c]pyrrolo[3,2-e]indol-8(1H)-one)]
HL60 (leukemia); Homo sapiens, 96 h
  pIC50: 11.30
[1]; Homo sapiens, 96 h
  pIC50: 10.72

## O=C1C=C2N(C(=O)c3ccc(C(=O)N4C[C@H]5C[C@@]56C4=CC(=O)c4ccccc46)s3)C[C@H]3C[C@@]23c2ccccc21 [Compound 136, (1aS,9bR,1a′S,9b′R)-3,3′-(thiene-2,5-diyldicarbonyl)bis(1,1a,2,3-tetrahydro-5H-benzo[e]cyclopropa[c]indol-5-one)]
HL60 (leukemia); Homo sapiens, 96 h
  pIC50: 11.30
[1]; Homo sapiens, 96 h
  pIC50: 11.52

## Nc1ccc(C(CC(=O)N2C[C@@H](CCl)c3c2cc(O)c2ccccc32)CC(=O)N2C[C@@H](CCl)c3c2cc(O)c2ccccc32)cc1 [Compound 48, 3-(4-Amino-phenyl)-1,5-bis-((S)-1-chloromethyl-5-hydroxy-1,2-dihydro-benzo[e]indol-3-yl)-pentane-1,5-dione]
HL60 (leukemia); Homo sapiens, 96 h
  pIC50: 8.76
[1]; Homo sapiens, 96 h
  pIC50: 7.91

## CC(=O)Oc1cc2c(c3ccccc13)[C@H](CCl)CN2C(=O)c1cc2cc(NC(=O)Nc3ccc4[nH]c(C(=O)N5C[C@@H](CCl)c6c5cc(OC(C)=O)c5ccccc65)cc4c3)ccc2[nH]1 [Compound 149, (1S)-3-[(5-{[(2-{[(1S)-5-(acetyloxy)-1-(chloromethyl)-1,2-dihydro-3H-benzo[e]indol-3-yl]carbonyl}-1H-indol-5-yl)carbamoyl]amino}-1H-indol-2-yl)carbonyl]-1-(chloromethyl)-1,2-dihydro-3H-benzo[e]indol-5-yl acetate]
HL60 (leukemia); Homo sapiens, 96 h
  pIC50: 11.15
[1]; Homo sapiens, 96 h
  pIC50: 9.88

## Nc1cc2c(c3ccccc13)[C@H](CCl)CN2C(=O)C12CC(C(=O)N3C[C@@H](CCl)c4c3cc(OP(=O)(O)O)c3ccccc43)(C1)C2 [Compound 161, (1S)-3-[(3-{[(1S)-5-amino-1-(chloromethyl)-1,2-dihydro-3H-benzo[e]indol-3-yl]carbonyl}bicyclo[1.1.1]pent-1-yl)carbonyl]-1-(chloromethyl)-2,3-dihydro-1H-benzo[e]indol-5-yl dihydrogen phosphate]
HL60 (leukemia); Homo sapiens, 96 h
  pIC50: 7.56
[1]; Homo sapiens, 96 h
  pIC50: ≤ 8.00
